Active and inactive are the calls of the source. The rule behind the calls is not given here.
What was measured:
[1] = target: T1, Hexokinase-1 (Homo sapiens) (UniProt P19367); assay: Inhibition of human recombinant hexokinase-1 assessed as NADPH generation measured after 1 hr by HPLC analysis; conditions: DDE = dose-dependent effect
T1 sequence (whole entry): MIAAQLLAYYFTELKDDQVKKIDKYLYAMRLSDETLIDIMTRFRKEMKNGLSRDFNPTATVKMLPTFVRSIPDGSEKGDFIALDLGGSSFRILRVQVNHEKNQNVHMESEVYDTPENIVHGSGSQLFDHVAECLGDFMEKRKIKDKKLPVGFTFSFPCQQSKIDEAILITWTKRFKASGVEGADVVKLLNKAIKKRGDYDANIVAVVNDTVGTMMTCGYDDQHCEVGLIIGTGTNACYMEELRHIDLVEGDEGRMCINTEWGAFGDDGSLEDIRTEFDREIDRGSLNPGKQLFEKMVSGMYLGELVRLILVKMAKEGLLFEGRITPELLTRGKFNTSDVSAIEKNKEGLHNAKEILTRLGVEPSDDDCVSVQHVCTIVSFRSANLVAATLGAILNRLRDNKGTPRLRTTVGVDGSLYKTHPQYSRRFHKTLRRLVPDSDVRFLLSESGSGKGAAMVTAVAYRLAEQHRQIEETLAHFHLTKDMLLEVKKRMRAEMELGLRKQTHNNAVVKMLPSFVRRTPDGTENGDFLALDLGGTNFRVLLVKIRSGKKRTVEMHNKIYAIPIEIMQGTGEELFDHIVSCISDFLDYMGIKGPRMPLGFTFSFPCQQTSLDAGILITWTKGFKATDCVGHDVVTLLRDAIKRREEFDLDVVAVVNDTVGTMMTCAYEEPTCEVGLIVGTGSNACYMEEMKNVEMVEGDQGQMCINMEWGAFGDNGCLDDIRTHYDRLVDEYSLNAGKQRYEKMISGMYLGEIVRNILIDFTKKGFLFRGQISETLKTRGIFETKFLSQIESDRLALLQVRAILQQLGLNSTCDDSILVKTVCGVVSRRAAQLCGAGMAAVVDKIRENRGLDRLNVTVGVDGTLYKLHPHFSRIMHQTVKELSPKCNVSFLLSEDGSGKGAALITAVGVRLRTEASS

[2] = Toxicity in BALB/C mouse xenografted with tamoxifen-resistant human LCC2 cells assessed as mortality at 20 mg/kg, po measured after 22 days; assay type: organism-based; conditions: in vivo, 528 h, time 22 day
[3] = Toxicity in BALB/C mouse xenografted with human MCF7 cells assessed as mortality at 10 to 20 mg/kg, po measured after 34 days; assay type: organism-based; conditions: in vivo, 816 h, dose 10-20 mg/kg, time 34 day
MCF7 [4] = assay: Downregulation of hexokinase-1 expression in human MCF7 cell mitochondria at 16 uM measured after 24 hrs by DAPI staining based immunofluorescence microscopy; assay type: functional
LCC2 [5] = assay: Downregulation of hexokinase-1 expression in tamoxifen-resistant human LCC2 cell outer mitochondrial membrane measured after 24 hrs by Western blot analysis; assay type: functional; conditions: Mitochondria
[6] = target: T1, Hexokinase-1 (Homo sapiens); assay: Binding affinity to hexokinase-1 in human MCF7 cell lysate measured after overnight incubation by LC-MS/MS analysis; assay type: subcellular; conditions: filed as antagonist, time 14.0 hrs
MCF7 [7] = assay: Induction of apoptosis in human MCF7 cells assessed as decrease in Bcl-2/Bax ratio by western blot analysis; assay type: functional, cell-based; conditions: DDE = dose-dependent effect
MCF7 [8] = assay: Induction of apoptosis in human MCF7 cells assessed as increase in Bax level at 0.5 to 4 uM incubated for 48 hrs by western blot analysis; assay type: functional, cell-based; conditions: dose 0.5-4 µM
LCC2 [9] = assay: Induction of mitochondrial membrane potential loss in tamoxifen-resistant human LCC2 cells at 5 to 30 uM incubated for 48 hrs by JC-1 staining based flow cytometry; assay type: functional, cell-based; conditions: dose 5-30 µM
[10] = AUC in BALB/C mouse at 20 mg/kg, po by LC-MS/MS analysis; assay type: ADME, organism-based; parameters: dose 20 mg/kg, route po; conditions: in vivo
MCF7 [11] = assay: Induction of mitochondrial membrane potential loss in human MCF7 cells incubated for 48 hrs by JC-1 staining based flow cytometry; assay type: functional, cell-based; conditions: dose 1-4 µM, DDE = dose-dependent effect
MCF7 [12] = assay: Antitumor activity against human MCF7 cells xenografted in BALB/C mouse assessed as increase in tumor necrosis area at 20 mg/kg, po […]; assay type: functional, organism-based
MCF7 [13] = assay: Induction of mitochondrial membrane potential loss in human MCF7 cells at 4 uM incubated for 48 hrs by JC-1 staining based flow cytometry relative to control; assay type: functional
MCF7 [14] = assay: Antitumor activity against human MCF7 cells xenografted in BALB/C mouse assessed as reduction of tumor weight at 20 mg/kg, po measured every 2 days for 34 days; assay type: functional, organism-based; conditions: time 34.0 day
LCC2 [15] = assay: Induction of apoptosis in tamoxifen-resistant human LCC2 cells assessed as decrease in Bcl2 level at 5 to 30 uM incubated for 48 hrs by western blot analysis; assay type: functional, cell-based; conditions: dose 5-30 µM
MCF7 [16] = assay: Antitumor activity against human MCF7 cells xenografted in BALB/C mouse assessed as reduction of tumor volume at 20 mg/kg, po measured every 2 days for 34 days; assay type: functional, organism-based; conditions: time 34.0 day
MCF7 [17] = assay: Induction of apoptosis in human MCF7 cells assessed as decrease in Bcl2 level at 0.5 to 4 uM incubated for 48 hrs by western blot analysis; assay type: functional, cell-based; conditions: dose 0.5-4 µM
MCF7 [18] = assay: Induction of ROS production in human MCF7 cells at 1 to 4 uM measured after 48 hrs by DCFH-DA staining based confocal laser scanning microscopic method; assay type: functional, cell-based; conditions: dose 1-4 µM
[19] = Cmax in BALB/C mouse at 20 mg/kg, po by LC-MS/MS analysis; assay type: ADME, organism-based; parameters: dose 20 mg/kg, route po; conditions: in vivo
[20] = Toxicity in BALB/C mouse xenografted with human MCF7 cells assessed as change in body weight at 10 to 20 mg/kg, po measured every 2 days for 34 days; assay type: organism-based; conditions: in vivo, 816 h, dose 10-20 mg/kg, time 34 day
[21] = Tmax in BALB/C mouse at 5 mg/kg, iv by LC-MS/MS analysis; assay type: ADME, organism-based; conditions: in vivo
MCF7 [22] = assay: Induction of apoptosis in human MCF7 cells assessed as total apoptotic cells at 0.5 uM incubated for 48 hrs by annexin V-FITC staining based flow cytometry; assay type: functional
[23] = Half life in BALB/C mouse at 20 mg/kg, po by LC-MS/MS analysis; assay type: ADME, organism-based; conditions: in vivo
[24] = Half life in BALB/C mouse at 5 mg/kg, iv by LC-MS/MS analysis; assay type: ADME, organism-based; conditions: in vivo
[25] = Toxicity in BALB/C mouse xenografted with human MCF7 cells assessed as morphological changes in heart at 10 to 20 mg/kg, po by hematoxylin and eosin staining based analysis; assay type: organism-based; conditions: in vivo, dose 10-20 mg/kg
MCF7 [26] = assay: Antitumor activity against human MCF7 cells xenografted in BALB/C mouse assessed as decrease in cell proliferation at 20 mg/kg, po by Ki67 staining based immunohistochemical analysis; assay type: functional, organism-based
[27] = Cmax in BALB/C mouse at 5 mg/kg, iv by LC-MS/MS analysis; assay type: ADME, organism-based; parameters: dose 5 mg/kg, route iv; conditions: in vivo
[28] = Toxicity in BALB/C mouse xenografted with human MCF7 cells assessed as morphological changes in liver at 10 to 20 mg/kg, po by hematoxylin and eosin staining based analysis; assay type: organism-based; conditions: in vivo, dose 10-20 mg/kg
[29] = Clearance in BALB/C mouse at 5 mg/kg, iv by LC-MS/MS analysis; assay type: ADME, organism-based; conditions: in vivo

Question: With `O=S(=O)(Oc1cccc2ccccc12)C1CC2OC1C(c1ccc([Se]c3ccccc3)cc1)=C2c1ccc(O)cc1` (centres undefined) as the compound, how does the Activity [1] read?
Answer: Its Activity is “Dde”.

Question: What about the Activity [2] of the same compound?
Answer: The Activity was “Non-Toxic”.

Question: What about the Activity [3] of the same compound?
Answer: Its Activity is “Non-Toxic”.

Question: And the Activity (MCF7 [4])?
Answer: The Activity was “Active”.

Question: What about the Activity (LCC2 [5]) of the same compound?
Answer: The Activity was “Active”.

Question: What about the Activity [6] of the same compound?
Answer: Its Activity is “Active”.

Question: What about the Activity (MCF7 [7]) of the same compound?
Answer: The Activity was “Dde”.

Question: What about the Activity (MCF7 [8]) of the same compound?
Answer: Its Activity is “Active”.

Question: What about the Activity (LCC2 [9]) of the same compound?
Answer: Its Activity is “Active”.

Question: What about the AUC [10] of the same compound?
Answer: The AUC was 1430 ng·h/mL.

Question: And the Activity (MCF7 [11])?
Answer: Its Activity is “Dde”.

Question: And the Activity (MCF7 [12])?
Answer: The Activity was “Active”.

Question: And the Activity (MCF7 [13])?
Answer: Its Activity is 13.87%.

Question: And the Activity (MCF7 [14])?
Answer: The Activity was “Active”.

Question: And the Activity (LCC2 [15])?
Answer: Its Activity is “Active”.

Question: What about the Activity (MCF7 [16]) of the same compound?
Answer: The Activity was “Active”.

Question: What about the Activity (MCF7 [17]) of the same compound?
Answer: The Activity was “Active”.

Question: What about the Activity (MCF7 [18]) of the same compound?
Answer: Its Activity is “Active”.

Question: And the Cmax [19]?
Answer: The Cmax was 400 ng/mL.

Question: What about the Activity [20] of the same compound?
Answer: Its Activity is “Non-Toxic”.

Question: What about the Tmax [21] of the same compound?
Answer: Its Tmax is 4.98 min.

Question: What about the Activity (MCF7 [22]) of the same compound?
Answer: The Activity was 9.16%.

Question: And the half-life [23]?
Answer: The half-life was 55.8 min.

Question: And the half-life [24]?
Answer: Its half-life is 279 min.

Question: What about the Activity [25] of the same compound?
Answer: The Activity was “Non-Toxic”.

Question: What about the Activity (MCF7 [26]) of the same compound?
Answer: The Activity was “Active”.

Question: And the Cmax [27]?
Answer: Its Cmax is 1490 ng/mL.

Question: What about the Activity [28] of the same compound?
Answer: Its Activity is “Non-Toxic”.

Question: And the clearance [29]?
Answer: The clearance was 52.7 mL/min/kg.
